Assay results reported in patent publication US12351586B2 (priority 2020, dated 2025).
pEC50: −log10 of the molar value.

Columns and labels:
[1] = test system: WT HIV-1 strain (IIIB); experiment: Anti-HIV activity in MT-4 cells, MTT method, WT HIV-1 strain (IIIB); format: cell-based
From the text: Etravirine (ETR) was selected as control drug.
Pannecouque et al. Nat. Protoc. […] Methods 20(1988) 309-321.

[2] = test system: HIV-1 mutant strains (K101E, V108I, F227C, M230I in RT gene); experiment: Activity against mutant strains selected by passaging HIV-1 IIIB 30 times in the presence of DK6-1; format: cell-based
[3] = test system: HIV-1 E138K mutant strain; experiment: microbe, parasite or virus in culture; settings: Human immunodeficiency virus 1, MT4, read-out: EC50 (anti-HIV activity)
[4] = test system: HIV-1 L100I mutant strain; experiment: microbe, parasite or virus in culture; settings: Human immunodeficiency virus 1, MT4, read-out: EC50 (anti-HIV activity)
[5] = test system: HIV-1 K103N mutant strain; experiment: Anti-HIV activity in MT-4 cells, MTT method, K103N mutant strain; format: cell-based; settings: Human immunodeficiency virus 1, MT4, read-out: EC50 (anti-HIV activity)
From the text: Pannecouque et al. Nat. Protoc.

Structure (SMILES)	pEC50 ([1]; HIV-1 IIIB wild-type)	pEC50 ([2]; mutant strains with K101E, V108I, F227C, M230I)	fold potent versus own activity against HIV-1 IIIB ([2]; selected mutant strains vs HIV-1 IIIB)	pEC50 [3]	pEC50 ([1]; Human immunodeficiency virus 1, MT4, HIV-1 IIIB wild-type)	pEC50 [4]	pEC50 [5]
Cc1cn([C@H]2C[C@H](N=[N+]=[N-])[C@@H](CO)O2)c(=O)[nH]c1=O [AZT]	7.90	9.00	about 10 fold	–	–	–	–
Cc1cc(/C=C/C#N)cc(C)c1Oc1nc(NC2CCN(Cc3ccc(S(N)(=O)=O)cc3)CC2)nc2sccc12 [DK6-1]	–	–	–	> 8.10	8.49	> 8.10	8.63
